# “Also recorded” adds a separate entry of the source. Non-standard residues stand in square brackets, D forms with d. Residues, ends and D or L forms follow the SMILES beside them.
# Tested on: plasma HDL
# Experiment: in vivo plasma HDL remodeling after intraperitoneal injection (Western blotting for mouse apoA-I)
# Settings: male BALB/c mice (n=3), i.p. 20 mg/kg; FIG. 3a; 20 mg/kg
# Description: To ascertain if the cyclic D,L-α-peptides function in vivo as modulators of HDL, we administered 1 to mice (BALB/c, n=3) via intraperitoneal injection (i.p.) at a dose of 20 mg/kg. After various times, blood was drawn and the plasma was analyzed by Western blotting to determine the levels of the HDL subpopulations.
# In vivo plasma remodeling: Cyclic peptide c[wLwReQeR], 1, was dissolved in 10% sucrose, and sterile filtered through a 0.22-μm syringe filter before injection. Mice were fasted beginning 12 h before dosing, and continued the fast until after the 8-h time point blood draw was completed. Groups of three mice received a 20 mg/kg dose of the cyclic peptide via intraperitoneal injection (0.3 mL). Blood was drawn (30-60 μL) from the retro-orbital sinus into a heparinized capillary tube before dosing (0 min) and at different intervals from 30 min to 8 h after dosing. Plasma was isolated immediately from the whole blood by centrifugation at 5000 rpm for 10 min at 4° C., after which 10 μL of plasma were mixed with 90 μL of 50% sucrose, vortexed for 30 s, and stored at 4° C. until all time points had been collected (samples were stored from 0-8 h). Samples were then mixed with 20 μL of 6× native loading buffer (125 mM tris, pH 6.8, 0.02% bromophenol, 20% glycerol). 6 μL of these samples were loaded onto a 4-20% polyacrylamide gel. Gels were run at constant 80 V at 4° C. for 14 h using a Laemli buffer system (25 mM tris, 192 mM glycine, pH 8.3). Gels were then blotted onto nitrocellulose membranes (0.45 μm, Bio-Rad) at constant 30 V at 4° C. for 2 h using the Laemli buffer (no methanol). The membrane was blocked with 5% non-fat dry milk (NFDM) in TBST (20 mM tris, 150 mM NaCl, pH 7.6, 0.1% Tween-20) for 1 h at 23° C., and then washed once for 10 min with TBST. […]
# In vivo plasma HDL remodeling activities of some of the peptides were also analyzed. […] Results shown in the figure were determined by Western blotting for mouse apoA-I.
compound,measurement,value
"CC(C)C[C@@H]1NC(=O)[C@@H](Cc2c[nH]c3ccccc23)NC(=O)[C@H](CCCNC(=N)N)NC(=O)[C@@H](CCC(=O)O)NC(=O)[C@H](CCC(N)=O)NC(=O)[C@@H](CCC(=O)O)NC(=O)[C@H](CCCNC(=N)N)NC(=O)[C@@H](Cc2c[nH]c3ccccc23)NC1=O [SEQ ID NO:1, c[wLwReQeR]] (cyclo([dW]L[dW]R[dE]Q[dE]R))",level of lipid-poor HDL in plasma,marked increase in the amount of lipid-poor HDL for up to 8 h; also recorded: increased the level of lipid-poor HDL

# — patent US10092620B2, “Uses of cyclic peptides for treating and preventing atherosclerosis” (THE SCRIPPS RESEARCH INSTITUTE, priority 2013, dated 2018)
